Laboratory results taken from publication PMC6199309, “A therapeutic approach to pantothenate kinase associated neurodegeneration” (Nature Communications, 2018).

Key:
Test in all cases: KINOMEscan
Type in all cases: binding
Details in all cases: read-out: %Ctrl @ 10000nM
MST1 = target: T1, MST1 (Homo sapiens, UniProt Q13043)
T1 construct: purchased DiscoverX KINOMEscan

TAOK1 = target: T2, TAOK1 (Homo sapiens, UniProt Q7L7X3)
T2 construct: purchased DiscoverX KINOMEscan

BRK = target: T3, BRK (Homo sapiens, UniProt Q13882)
T3 construct: purchased DiscoverX KINOMEscan

PDGFRA = target: T4, PDGFRA (Homo sapiens, UniProt P16234)
T4 construct: purchased DiscoverX KINOMEscan

ERBB2 = target: T5, ERBB2 (Homo sapiens, UniProt P04626)
T5 construct: purchased DiscoverX KINOMEscan

FLT3(D835Y) = target: T6, FLT3(D835Y) (Homo sapiens, UniProt P36888, D835Y)
T6 construct: purchased DiscoverX KINOMEscan

ROCK1 = target: T7, ROCK1 (Homo sapiens, UniProt Q13464)
T7 construct: purchased DiscoverX KINOMEscan

[1] = target: T8, RSK3(Kin.Dom.1-N-terminal) (Homo sapiens, UniProt Q15349)
T8 construct: RSK3(Kin.Dom.1-N-terminal); purchased DiscoverX KINOMEscan

KIT(A829P) = target: T9, KIT(A829P) (Homo sapiens, UniProt P10721, A829P)
T9 construct: purchased DiscoverX KINOMEscan

KIT = target: T10, KIT (Homo sapiens, UniProt P10721)
T10 construct: purchased DiscoverX KINOMEscan

MKNK1 = target: T11, MKNK1 (Homo sapiens, UniProt Q9BUB5)
T11 construct: purchased DiscoverX KINOMEscan

NEK5 = target: T12, NEK5 (Homo sapiens, UniProt Q6P3R8)
T12 construct: purchased DiscoverX KINOMEscan

SIK2 = target: T13, SIK2 (Homo sapiens, UniProt Q9H0K1)
T13 construct: DNA tag for qPCR (T7 phage fusion or DNA label); purchased DiscoverX KdELECT; host or cells: E. coli BL21-derived (T7 phage) or HEK-293

MAK = target: T14, MAK (Homo sapiens, UniProt P20794)
T14 construct: purchased DiscoverX KINOMEscan

ERN1 = target: T15, ERN1 (Homo sapiens, UniProt O75460)
T15 construct: purchased DiscoverX KINOMEscan

EPHB1 = target: T16, EPHB1 (Homo sapiens, UniProt P54762)
T16 construct: purchased DiscoverX KINOMEscan

STK35 = target: T17, STK35 (Homo sapiens, UniProt Q8TDR2)
T17 construct: DNA tag for qPCR (T7 phage fusion or DNA label); purchased DiscoverX KdELECT; host or cells: E. coli BL21-derived (T7 phage) or HEK-293

PAK6 = target: T18, PAK6 (Homo sapiens, UniProt Q9NQU5)
T18 construct: purchased DiscoverX KINOMEscan

MARK2 = target: T19, MARK2 (Homo sapiens, UniProt Q7KZI7)
T19 construct: purchased DiscoverX KINOMEscan

CSNK2A2 = target: T20, CSNK2A2 (Homo sapiens, UniProt P19784)
T20 construct: purchased DiscoverX KINOMEscan

MAPKAPK2 = target: T21, MAPKAPK2 (Homo sapiens, UniProt P49137)
T21 construct: purchased DiscoverX KINOMEscan

PIM1 = target: T22, PIM1 (Homo sapiens, UniProt P11309)
T22 construct: purchased DiscoverX KINOMEscan

EGFR(G719S) = target: T23, EGFR(G719S) (Homo sapiens, UniProt P00533, G719S)
T23 construct: purchased DiscoverX KINOMEscan

CIT = target: T24, CIT (Homo sapiens, UniProt O14578)
T24 construct: purchased DiscoverX KINOMEscan

LYN = target: T25, LYN (Homo sapiens, UniProt P07948)
T25 construct: purchased DiscoverX KINOMEscan

[2] = target: T26, ABL1(Y253F)-phosphorylated (Homo sapiens, UniProt P00519, Y253F)
T26 construct: purchased DiscoverX KINOMEscan

CDKL2 = target: T27, CDKL2 (Homo sapiens, UniProt Q92772)
T27 construct: purchased DiscoverX KINOMEscan

PIK3C2G = target: T28, PIK3C2G (Homo sapiens, UniProt O75747)
T28 construct: purchased DiscoverX KINOMEscan

ASK2 = target: T29, ASK2 (Homo sapiens, UniProt O95382)
T29 construct: purchased DiscoverX KINOMEscan

PIK3CD = target: T30, PIK3CD (Homo sapiens, UniProt O00329)
T30 construct: purchased DiscoverX KINOMEscan

TLK1 = target: T31, TLK1 (Homo sapiens, UniProt Q9UKI8)
T31 construct: purchased DiscoverX KINOMEscan

PYK2 = target: T32, PYK2 (Homo sapiens, UniProt Q14289)
T32 construct: purchased DiscoverX KINOMEscan

TTK = target: T33, TTK (Homo sapiens, UniProt P33981)
T33 construct: DNA label for qPCR (T7 phage fusion or DNA tag); purchased DiscoverX scanMAX; host or cells: E. coli BL21-derived (T7 phage) or HEK-293

LCK = target: T34, LCK (Homo sapiens, UniProt P06239)
T34 construct: purchased DiscoverX KINOMEscan

ALK(L1196M) = target: T35, ALK(L1196M) (Homo sapiens, UniProt Q9UM73, L1196M)
T35 construct: purchased DiscoverX KINOMEscan

S6K1 = target: T36, S6K1 (Homo sapiens, UniProt P23443)
T36 construct: purchased DiscoverX KINOMEscan

PIKFYVE = target: T37, PIKFYVE (Homo sapiens, UniProt Q9Y2I7)
T37 construct: purchased DiscoverX KINOMEscan

FLT3 = target: T38, FLT3 (Homo sapiens, UniProt P36888)
T38 construct: purchased DiscoverX KINOMEscan

FLT3(R834Q) = target: T39, FLT3(R834Q) (Homo sapiens, UniProt P36888, R834Q)
T39 construct: purchased DiscoverX KINOMEscan

SgK110 = target: T40, SgK110 (Homo sapiens, UniProt P0C264)
T40 construct: purchased DiscoverX KINOMEscan
T40 sequence (P0C264 whole entry): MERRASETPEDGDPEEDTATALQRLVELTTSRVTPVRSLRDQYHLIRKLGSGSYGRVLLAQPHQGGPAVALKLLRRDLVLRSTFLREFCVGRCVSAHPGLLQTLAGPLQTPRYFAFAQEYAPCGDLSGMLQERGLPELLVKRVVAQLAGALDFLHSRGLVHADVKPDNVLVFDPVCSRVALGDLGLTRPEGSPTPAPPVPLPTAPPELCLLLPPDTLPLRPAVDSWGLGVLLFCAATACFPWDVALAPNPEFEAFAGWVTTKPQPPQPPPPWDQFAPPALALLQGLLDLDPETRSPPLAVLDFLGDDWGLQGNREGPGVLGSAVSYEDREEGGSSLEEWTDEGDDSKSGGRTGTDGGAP

T23 sequence (P00533 25-1210 G719S): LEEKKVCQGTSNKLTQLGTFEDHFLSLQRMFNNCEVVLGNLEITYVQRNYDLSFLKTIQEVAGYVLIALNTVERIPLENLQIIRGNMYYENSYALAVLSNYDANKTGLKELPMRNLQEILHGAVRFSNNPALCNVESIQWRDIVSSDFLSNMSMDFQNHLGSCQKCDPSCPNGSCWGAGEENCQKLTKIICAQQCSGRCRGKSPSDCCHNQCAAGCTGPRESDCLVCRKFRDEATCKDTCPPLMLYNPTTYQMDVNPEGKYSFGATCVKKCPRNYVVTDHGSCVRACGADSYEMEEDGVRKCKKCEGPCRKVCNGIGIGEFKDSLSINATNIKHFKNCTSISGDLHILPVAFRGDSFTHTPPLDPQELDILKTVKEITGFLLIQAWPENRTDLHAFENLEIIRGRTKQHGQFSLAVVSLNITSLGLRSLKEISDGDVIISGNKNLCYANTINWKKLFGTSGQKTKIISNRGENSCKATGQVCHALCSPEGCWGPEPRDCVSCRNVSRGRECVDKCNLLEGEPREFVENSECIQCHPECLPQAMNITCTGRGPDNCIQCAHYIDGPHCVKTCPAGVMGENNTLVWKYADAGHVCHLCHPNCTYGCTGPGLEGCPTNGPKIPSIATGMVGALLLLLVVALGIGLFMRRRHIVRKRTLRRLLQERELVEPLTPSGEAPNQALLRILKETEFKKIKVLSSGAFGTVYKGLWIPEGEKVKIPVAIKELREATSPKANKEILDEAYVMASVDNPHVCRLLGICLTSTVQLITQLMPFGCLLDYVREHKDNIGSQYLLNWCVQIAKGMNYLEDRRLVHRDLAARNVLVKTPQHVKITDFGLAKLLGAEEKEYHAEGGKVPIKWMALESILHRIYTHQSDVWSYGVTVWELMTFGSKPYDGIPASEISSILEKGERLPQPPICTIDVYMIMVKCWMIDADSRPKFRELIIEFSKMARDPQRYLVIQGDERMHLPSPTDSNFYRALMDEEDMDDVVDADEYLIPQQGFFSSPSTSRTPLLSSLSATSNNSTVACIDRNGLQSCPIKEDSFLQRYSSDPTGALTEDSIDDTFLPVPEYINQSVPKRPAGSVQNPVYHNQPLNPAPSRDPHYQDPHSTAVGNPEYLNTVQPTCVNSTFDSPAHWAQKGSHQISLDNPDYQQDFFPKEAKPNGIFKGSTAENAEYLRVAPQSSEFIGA
T18 sequence (Q9NQU5 whole entry): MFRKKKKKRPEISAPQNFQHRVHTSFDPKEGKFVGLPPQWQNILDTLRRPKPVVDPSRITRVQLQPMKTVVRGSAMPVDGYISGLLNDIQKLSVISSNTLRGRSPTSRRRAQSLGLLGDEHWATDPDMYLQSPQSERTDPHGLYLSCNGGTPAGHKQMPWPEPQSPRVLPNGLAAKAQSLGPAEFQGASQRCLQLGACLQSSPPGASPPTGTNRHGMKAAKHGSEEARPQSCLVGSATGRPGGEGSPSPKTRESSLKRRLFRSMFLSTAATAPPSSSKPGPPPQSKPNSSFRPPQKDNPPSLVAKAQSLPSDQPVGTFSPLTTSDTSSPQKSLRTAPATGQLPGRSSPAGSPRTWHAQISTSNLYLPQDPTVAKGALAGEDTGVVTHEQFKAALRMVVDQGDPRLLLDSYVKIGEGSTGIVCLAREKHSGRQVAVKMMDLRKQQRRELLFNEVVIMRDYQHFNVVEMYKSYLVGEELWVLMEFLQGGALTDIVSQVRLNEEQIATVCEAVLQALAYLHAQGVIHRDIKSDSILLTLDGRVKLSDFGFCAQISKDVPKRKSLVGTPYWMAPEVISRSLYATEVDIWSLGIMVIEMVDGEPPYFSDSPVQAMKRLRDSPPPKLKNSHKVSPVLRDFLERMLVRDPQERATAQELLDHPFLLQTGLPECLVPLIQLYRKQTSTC
T16 sequence (P54762 18-984): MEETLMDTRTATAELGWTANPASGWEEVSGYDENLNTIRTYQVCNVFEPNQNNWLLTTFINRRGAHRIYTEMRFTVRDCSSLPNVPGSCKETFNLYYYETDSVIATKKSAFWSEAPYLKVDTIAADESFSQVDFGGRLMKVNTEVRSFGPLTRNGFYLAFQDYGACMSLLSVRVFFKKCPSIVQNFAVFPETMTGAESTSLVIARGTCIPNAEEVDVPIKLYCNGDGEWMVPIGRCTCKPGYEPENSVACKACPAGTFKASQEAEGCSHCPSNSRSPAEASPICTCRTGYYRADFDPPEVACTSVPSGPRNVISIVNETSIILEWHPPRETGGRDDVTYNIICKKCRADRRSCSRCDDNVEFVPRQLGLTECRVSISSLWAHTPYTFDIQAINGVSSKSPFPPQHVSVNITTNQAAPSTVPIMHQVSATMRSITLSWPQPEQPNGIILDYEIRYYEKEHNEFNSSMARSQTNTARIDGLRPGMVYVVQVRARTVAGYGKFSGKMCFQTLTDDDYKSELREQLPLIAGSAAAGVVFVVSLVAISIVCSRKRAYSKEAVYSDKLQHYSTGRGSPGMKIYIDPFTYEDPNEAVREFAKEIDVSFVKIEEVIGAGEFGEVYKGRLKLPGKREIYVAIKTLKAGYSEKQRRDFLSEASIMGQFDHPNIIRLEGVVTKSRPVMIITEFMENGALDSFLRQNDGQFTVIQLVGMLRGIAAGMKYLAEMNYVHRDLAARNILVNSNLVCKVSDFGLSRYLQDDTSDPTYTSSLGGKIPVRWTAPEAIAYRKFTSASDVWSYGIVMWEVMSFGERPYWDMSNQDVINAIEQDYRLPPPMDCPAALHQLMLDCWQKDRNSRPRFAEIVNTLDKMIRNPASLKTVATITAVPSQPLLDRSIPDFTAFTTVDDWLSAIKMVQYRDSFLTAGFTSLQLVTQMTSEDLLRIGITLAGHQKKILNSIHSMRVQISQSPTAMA
T14 sequence (P20794 whole entry): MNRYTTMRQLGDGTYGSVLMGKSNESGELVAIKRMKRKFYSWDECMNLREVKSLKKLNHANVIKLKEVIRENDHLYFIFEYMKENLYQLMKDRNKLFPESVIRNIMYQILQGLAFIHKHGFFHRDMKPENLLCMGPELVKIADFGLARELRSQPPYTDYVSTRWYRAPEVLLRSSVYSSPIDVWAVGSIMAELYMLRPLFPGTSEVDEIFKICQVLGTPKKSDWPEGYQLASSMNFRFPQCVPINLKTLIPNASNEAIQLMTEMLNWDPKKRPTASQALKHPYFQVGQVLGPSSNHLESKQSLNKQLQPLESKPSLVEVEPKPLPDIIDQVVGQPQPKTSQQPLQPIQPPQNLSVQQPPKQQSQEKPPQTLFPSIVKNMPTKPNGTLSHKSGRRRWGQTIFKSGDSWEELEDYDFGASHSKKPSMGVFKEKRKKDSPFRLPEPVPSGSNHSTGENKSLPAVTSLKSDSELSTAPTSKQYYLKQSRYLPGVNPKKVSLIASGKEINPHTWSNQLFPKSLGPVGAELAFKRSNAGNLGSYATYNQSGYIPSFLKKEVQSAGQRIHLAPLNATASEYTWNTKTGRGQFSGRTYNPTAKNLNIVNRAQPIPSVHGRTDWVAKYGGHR
T5 sequence (P04626 23-1255): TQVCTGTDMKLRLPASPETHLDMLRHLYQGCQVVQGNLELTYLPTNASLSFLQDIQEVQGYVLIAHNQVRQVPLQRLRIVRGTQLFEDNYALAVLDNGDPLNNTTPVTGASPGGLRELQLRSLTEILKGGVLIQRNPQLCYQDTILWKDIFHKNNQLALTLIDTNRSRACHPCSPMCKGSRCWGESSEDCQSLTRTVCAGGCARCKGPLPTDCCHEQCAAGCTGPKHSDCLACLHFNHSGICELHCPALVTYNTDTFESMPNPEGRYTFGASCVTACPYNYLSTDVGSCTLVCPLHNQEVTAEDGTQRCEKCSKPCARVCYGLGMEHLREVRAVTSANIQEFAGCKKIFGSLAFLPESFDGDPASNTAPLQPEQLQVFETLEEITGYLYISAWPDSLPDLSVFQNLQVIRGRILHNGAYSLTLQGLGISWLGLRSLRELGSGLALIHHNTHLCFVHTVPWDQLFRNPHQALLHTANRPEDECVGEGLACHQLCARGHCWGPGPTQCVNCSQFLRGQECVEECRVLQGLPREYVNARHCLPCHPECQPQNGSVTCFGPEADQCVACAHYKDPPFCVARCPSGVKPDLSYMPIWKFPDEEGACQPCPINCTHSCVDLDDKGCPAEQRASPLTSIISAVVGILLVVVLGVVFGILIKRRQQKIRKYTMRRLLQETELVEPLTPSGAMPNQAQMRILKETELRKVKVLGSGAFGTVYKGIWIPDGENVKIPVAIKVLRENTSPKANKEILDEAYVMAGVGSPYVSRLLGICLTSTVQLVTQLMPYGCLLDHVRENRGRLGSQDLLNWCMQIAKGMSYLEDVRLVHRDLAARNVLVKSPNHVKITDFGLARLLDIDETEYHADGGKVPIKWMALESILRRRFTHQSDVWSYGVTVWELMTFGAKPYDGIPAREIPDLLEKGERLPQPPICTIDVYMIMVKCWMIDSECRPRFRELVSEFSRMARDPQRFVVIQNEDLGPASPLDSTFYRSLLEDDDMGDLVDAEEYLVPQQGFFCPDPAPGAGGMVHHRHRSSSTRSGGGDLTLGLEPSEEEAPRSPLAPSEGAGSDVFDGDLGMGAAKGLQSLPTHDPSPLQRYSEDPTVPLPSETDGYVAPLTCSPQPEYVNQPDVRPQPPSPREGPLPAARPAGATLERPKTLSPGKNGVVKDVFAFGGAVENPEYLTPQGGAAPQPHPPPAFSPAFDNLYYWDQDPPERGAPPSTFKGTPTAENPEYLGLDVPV

CC(C)c1ccc(CC(=O)N2CCN(c3ccc(C#N)nn3)CC2)cc1 [PZ-2891, 6-(4-(2-(4-isopropylphenyl)acetyl)piperazin-1-yl)pyridazine-3-carbonitrile]
remaining binding at 10 µM (MST1): 86%
remaining binding at 10 µM (TAOK1): 93%
remaining binding at 10 µM (BRK): 80%
remaining binding at 10 µM (PDGFRA): 70%
remaining binding at 10 µM (ERBB2): 92%
remaining binding at 10 µM (FLT3(D835Y)): 89%
remaining binding at 10 µM (ROCK1): 100%
remaining binding at 10 µM [1]: 72%
remaining binding at 10 µM (KIT(A829P)): 91%
remaining binding at 10 µM (KIT): 75%
remaining binding at 10 µM (MKNK1): 97%
remaining binding at 10 µM (NEK5): 100%
remaining binding at 10 µM (SIK2): 9.5%
remaining binding at 10 µM (MAK): 69%
remaining binding at 10 µM (ERN1): 82%
remaining binding at 10 µM (EPHB1): 90%
remaining binding at 10 µM (STK35): 0.2%
remaining binding at 10 µM (PAK6): 100%
remaining binding at 10 µM (MARK2): 70%
remaining binding at 10 µM (CSNK2A2): 88%
remaining binding at 10 µM (MAPKAPK2): 88%
remaining binding at 10 µM (PIM1): 93%
remaining binding at 10 µM (EGFR(G719S)): 91%
remaining binding at 10 µM (CIT): 97%
remaining binding at 10 µM (LYN): 79%
remaining binding at 10 µM [2]: 82%
remaining binding at 10 µM (CDKL2): 90%
remaining binding at 10 µM (PIK3C2G): 61%
remaining binding at 10 µM (ASK2): 83%
remaining binding at 10 µM (PIK3CD): 89%
remaining binding at 10 µM (TLK1): 72%
remaining binding at 10 µM (PYK2): 90%
remaining binding at 10 µM (TTK): 96%
remaining binding at 10 µM (LCK): 98%
remaining binding at 10 µM (ALK(L1196M)): 73%
remaining binding at 10 µM (S6K1): 96%
remaining binding at 10 µM (PIKFYVE): 72%
remaining binding at 10 µM (FLT3): 57%
remaining binding at 10 µM (FLT3(R834Q)): 100%
remaining binding at 10 µM (SgK110): 94%
